Assay results as given in patent US10941158B2, “Pyrazole ACC inhibitors and uses thereof” (Gilead Apollo, LLC, priority 2015, dated 2021).
Values after ≈ are worked out from the molar mass of the structure shown. Where two headings read alike, the source gives them in different places.

Key:
human (hACC2) ACC2 = human (hACC2) ACC2 (Homo sapiens, UniProt O00763); assay: In vitro Acetyl-CoA Carboxylase (ACC) inhibition assay (ADP-Glo), hACC2; type: biochemical
Protocol: The detailed procedure is as follows. […] 10 μL ADP glo reagent was added. […] 20 μL kinase detection reagent was added.
“NA” stands for “not assayed.”

C. krusei ATCC 6258 = assay: Anti-Fungal (Candida) Activity Assay, broth microtiter MIC; type: cell-based; conditions: Pichia kudriavzevii, read-out: MIC C. krusei ATCC 6258
Outline: (§1)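 Test compounds were dissolved in DMSO at 1 mg/mL (stock) and challenged against direct colony suspensions in RPMI 1640 with MOPS under CLSI M27-A3 broth microdilution. Growth was judged by eye relative to drug-free control after 48 h.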

[1] = tested on: C. parapsilosis ATCC 22019; assay: as above; type: cell-based; conditions: Lodderomyces parapsilosis, read-out: MIC C. parapsilosis ATCC 22019
Outline: as §1

C. albicans ATCC 90028 = assay: as above; type: cell-based; conditions: read-out: MIC C. albicans ATCC 90028
Outline: as §1

fungal (fACC2) ACC2 = fungal (fACC2) ACC2 (UniProt Q00955); conditions: read-out: fACC2 IC50; fungal ACC2, ADP-Glo
Chain of fungal (fACC2) ACC2 (Q00955 whole entry): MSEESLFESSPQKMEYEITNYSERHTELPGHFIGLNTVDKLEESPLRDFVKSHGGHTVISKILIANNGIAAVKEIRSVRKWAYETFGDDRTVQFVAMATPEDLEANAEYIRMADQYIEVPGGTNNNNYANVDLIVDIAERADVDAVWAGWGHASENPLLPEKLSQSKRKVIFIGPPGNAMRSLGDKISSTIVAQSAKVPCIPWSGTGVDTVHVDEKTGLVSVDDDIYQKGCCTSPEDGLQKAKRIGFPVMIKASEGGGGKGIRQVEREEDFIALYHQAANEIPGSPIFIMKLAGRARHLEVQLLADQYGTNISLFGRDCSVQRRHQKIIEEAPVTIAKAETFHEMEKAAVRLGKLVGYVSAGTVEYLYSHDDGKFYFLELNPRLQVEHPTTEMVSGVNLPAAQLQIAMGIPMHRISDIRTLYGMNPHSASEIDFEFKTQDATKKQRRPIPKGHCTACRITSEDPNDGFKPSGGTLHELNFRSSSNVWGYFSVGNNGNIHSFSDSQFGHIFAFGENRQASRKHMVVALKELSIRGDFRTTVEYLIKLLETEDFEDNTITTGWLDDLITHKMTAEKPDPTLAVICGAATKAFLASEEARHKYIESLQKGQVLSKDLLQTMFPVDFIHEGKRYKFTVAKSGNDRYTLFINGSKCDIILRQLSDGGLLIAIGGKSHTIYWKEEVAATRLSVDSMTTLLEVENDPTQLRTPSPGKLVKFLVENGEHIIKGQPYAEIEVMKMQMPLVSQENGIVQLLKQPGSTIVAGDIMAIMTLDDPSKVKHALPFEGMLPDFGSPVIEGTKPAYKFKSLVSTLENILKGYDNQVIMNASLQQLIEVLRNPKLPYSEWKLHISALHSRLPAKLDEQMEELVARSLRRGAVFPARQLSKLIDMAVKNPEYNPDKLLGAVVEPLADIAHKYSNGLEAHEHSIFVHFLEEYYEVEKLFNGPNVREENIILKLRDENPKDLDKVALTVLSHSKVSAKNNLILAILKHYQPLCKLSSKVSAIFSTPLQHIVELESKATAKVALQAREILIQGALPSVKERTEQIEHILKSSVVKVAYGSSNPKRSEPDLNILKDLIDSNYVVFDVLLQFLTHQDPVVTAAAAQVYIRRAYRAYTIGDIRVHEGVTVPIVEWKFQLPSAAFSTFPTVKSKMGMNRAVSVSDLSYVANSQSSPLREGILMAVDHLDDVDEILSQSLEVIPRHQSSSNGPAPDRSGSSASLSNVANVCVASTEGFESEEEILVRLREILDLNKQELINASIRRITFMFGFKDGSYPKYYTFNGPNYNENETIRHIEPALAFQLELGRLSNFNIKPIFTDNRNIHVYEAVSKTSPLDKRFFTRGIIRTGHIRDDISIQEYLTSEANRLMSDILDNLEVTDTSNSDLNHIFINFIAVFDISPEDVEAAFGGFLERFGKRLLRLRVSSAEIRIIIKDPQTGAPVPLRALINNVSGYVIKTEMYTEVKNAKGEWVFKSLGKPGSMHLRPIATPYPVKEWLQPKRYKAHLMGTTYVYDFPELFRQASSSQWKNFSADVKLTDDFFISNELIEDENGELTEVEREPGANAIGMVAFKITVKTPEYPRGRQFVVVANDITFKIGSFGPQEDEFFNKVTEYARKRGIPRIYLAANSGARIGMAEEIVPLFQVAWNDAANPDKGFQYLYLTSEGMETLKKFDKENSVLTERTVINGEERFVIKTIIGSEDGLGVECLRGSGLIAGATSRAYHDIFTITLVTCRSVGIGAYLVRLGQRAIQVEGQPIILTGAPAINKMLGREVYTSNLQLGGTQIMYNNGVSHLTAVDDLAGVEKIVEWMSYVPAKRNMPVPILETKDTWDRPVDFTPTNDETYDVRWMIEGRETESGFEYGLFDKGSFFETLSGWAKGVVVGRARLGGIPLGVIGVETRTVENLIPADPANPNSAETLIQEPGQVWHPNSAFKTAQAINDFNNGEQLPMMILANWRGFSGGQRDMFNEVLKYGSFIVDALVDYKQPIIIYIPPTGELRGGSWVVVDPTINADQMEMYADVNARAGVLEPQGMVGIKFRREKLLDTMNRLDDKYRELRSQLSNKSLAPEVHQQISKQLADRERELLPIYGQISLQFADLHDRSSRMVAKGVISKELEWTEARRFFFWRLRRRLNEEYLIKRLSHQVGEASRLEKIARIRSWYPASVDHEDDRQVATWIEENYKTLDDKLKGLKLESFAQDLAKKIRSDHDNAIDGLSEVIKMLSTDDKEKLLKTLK

[2] = ATCC6258, 3 replicates, MIC recorded at 48 h
[3] = ATCC22019, 3 replicates, MIC recorded at 48 h
[4] = ATCC90028, 3 replicates, MIC recorded at 48 h

Chain of human (hACC2) ACC2 (O00763 whole entry): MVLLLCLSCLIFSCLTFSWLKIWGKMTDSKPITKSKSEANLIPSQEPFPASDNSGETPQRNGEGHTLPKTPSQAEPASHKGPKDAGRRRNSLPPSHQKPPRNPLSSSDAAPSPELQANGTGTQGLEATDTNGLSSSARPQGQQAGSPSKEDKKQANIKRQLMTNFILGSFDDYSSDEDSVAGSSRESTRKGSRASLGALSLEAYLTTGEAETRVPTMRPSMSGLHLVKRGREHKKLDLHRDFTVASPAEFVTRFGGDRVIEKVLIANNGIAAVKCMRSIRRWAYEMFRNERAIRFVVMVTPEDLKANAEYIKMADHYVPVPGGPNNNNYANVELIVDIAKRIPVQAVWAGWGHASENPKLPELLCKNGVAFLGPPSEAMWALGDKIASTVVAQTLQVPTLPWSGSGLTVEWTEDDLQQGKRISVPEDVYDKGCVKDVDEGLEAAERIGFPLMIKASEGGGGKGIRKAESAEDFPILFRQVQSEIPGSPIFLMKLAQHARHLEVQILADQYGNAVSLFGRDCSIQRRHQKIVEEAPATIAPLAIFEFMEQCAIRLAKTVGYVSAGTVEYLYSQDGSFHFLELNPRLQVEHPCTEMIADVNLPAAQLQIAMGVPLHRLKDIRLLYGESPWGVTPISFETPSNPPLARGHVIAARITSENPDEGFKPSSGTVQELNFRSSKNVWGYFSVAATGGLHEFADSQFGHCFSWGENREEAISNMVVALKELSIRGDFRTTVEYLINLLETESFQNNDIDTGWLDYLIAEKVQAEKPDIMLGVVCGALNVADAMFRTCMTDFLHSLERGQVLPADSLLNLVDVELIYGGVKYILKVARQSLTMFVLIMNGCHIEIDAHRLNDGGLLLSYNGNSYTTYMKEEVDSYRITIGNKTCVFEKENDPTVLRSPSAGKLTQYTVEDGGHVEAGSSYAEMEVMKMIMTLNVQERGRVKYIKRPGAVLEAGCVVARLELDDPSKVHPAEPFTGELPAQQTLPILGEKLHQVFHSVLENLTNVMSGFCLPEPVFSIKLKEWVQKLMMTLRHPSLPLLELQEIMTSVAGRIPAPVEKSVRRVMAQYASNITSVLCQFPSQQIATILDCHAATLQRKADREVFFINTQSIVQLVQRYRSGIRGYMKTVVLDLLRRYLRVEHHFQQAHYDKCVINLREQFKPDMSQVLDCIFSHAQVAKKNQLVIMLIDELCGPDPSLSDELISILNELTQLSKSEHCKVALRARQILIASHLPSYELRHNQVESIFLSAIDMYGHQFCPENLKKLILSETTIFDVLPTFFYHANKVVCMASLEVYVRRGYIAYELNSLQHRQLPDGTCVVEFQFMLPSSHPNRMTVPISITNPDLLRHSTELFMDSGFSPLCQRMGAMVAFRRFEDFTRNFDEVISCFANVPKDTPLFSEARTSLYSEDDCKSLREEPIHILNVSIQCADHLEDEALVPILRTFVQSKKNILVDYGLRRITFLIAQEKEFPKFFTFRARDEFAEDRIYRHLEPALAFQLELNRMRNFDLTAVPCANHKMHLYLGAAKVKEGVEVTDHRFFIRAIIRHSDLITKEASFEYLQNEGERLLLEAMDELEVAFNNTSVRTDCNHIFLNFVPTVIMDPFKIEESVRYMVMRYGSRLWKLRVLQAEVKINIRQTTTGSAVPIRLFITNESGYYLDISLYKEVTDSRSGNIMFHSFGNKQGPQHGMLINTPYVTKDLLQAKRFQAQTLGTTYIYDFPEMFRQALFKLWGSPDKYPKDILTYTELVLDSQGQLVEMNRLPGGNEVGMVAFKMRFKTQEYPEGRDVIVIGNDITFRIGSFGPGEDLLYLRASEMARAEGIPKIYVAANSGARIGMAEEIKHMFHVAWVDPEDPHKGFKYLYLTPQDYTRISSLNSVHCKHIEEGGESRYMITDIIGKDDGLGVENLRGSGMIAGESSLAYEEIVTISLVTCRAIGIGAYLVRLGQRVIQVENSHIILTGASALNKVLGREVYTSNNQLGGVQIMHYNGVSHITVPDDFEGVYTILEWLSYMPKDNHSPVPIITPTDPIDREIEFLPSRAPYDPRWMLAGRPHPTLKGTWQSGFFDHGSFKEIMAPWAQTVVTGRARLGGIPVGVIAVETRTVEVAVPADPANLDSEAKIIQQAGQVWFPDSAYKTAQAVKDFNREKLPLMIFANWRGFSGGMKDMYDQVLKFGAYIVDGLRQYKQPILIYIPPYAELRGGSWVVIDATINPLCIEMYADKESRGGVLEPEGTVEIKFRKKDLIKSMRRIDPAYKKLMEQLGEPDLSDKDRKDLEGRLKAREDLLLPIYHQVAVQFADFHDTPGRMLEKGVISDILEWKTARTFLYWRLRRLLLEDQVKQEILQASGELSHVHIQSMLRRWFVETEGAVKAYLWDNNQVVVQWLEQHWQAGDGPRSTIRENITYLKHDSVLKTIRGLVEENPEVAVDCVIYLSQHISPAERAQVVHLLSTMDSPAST

SMILES	IC50 (human (hACC2) ACC2)	MIC (C. krusei ATCC 6258; [2])	MIC [1, 3]	MIC (C. albicans ATCC 90028; [4])	IC50 (fungal (fACC2) ACC2)	MIC (C. krusei ATCC 6258; ATCC6258, 48 h)	MIC ([1]; ATCC22019, 48 h)	MIC (C. albicans ATCC 90028; ATCC90028, 48 h)
COc1ccccc1[C@H](Cn1c(=O)n(C(C)(C)C(=O)O)c(=O)c2c(C)c(-n3cccn3)sc21)O[C@H]1CC[C@@H](O)CC1 [Compound I-72]	3 to 10 nM	> 4.1 µg/mL	> 4.1 µg/mL	> 4.1 µg/mL	0.6 to 3 nM	–	–	–
COCCO[C@@H](Cn1c(=O)n([C@@H](C)C(=O)NC(C)C)c(=O)c2c(C)c(-n3cccn3)sc21)c1cc(F)ccc1OC [Compound I-73, (S)-2-(1-((R)-2-(5-fluoro-2-methoxyphenyl)-2-(2-methoxy-ethoxy)ethyl)-5-methyl-2,4-dioxo-6-(1H-pyrazol-1-yl)-1,4-dihydrothieno[2,3-d]pyrimidin-3(2H)-yl)-N-isopropylpropanamide]	3 to 10 nM	> 4.1 µg/mL	2.1 to 4 µg/mL (≈ 3.57 to 6.81 µM)	2.1 to 4 µg/mL (≈ 3.57 to 6.81 µM)	0.6 to 3 nM	–	–	–
COCCO[C@@H](Cn1c(=O)n([C@H](C)C(=O)NC(C)C)c(=O)c2c(C)c(-n3cccn3)sc21)c1cc(F)ccc1OC [Compound I-74, (R)-2-(1-((R)-2-(5-fluoro-2-methoxyphenyl)-2-(2-methoxy-ethoxy)ethyl)-5-methyl-2,4-dioxo-6-(1H-pyrazol-1-yl)-1,4-dihydrothieno[2,3-d]pyrimidin-3(2H)-yl)-N-isopropylpropanamide]	> 40 nM	> 4.1 µg/mL	> 4.1 µg/mL	> 4.1 µg/mL	10 to 40 nM	–	–	–
COc1ccccc1[C@H](Cn1c(=O)n(C(C)(C)C(=O)NC(C)C)c(=O)c2c(C)c(-n3cccn3)sc21)OCCC#N [Compound I-80, (R)-2-(1-(2-(2-cyanoethoxy)-2-(2-methoxyphenyl)ethyl)-5-methyl-2,4-dioxo-6-(1H-pyrazol-1-yl)-1,4-dihydrothieno[2,3-d]pyrimidin-3(2H)-yl)-N-isopropyl-2-methylpropanamide]	10 to 40 nM	–	–	–	3 to 10 nM	> 4.1 µg/mL	> 4.1 µg/mL	> 4.1 µg/mL
COc1ccccc1[C@H](Cn1c(=O)n(C(C)(C)C(N)=O)c(=O)c2c(C)c(-n3cccn3)sc21)OCCC#N [Compound I-83]	10 to 40 nM	> 4.1 µg/mL	> 4.1 µg/mL	> 4.1 µg/mL	3 to 10 nM	–	–	–
COc1ccccc1[C@H](Cn1c(=O)n(C(C)(C)C(=O)N2CCCC2)c(=O)c2c(C)c(-n3cccn3)sc21)OCCC#N [Compound I-84, (R)-3-(I-(2-methoxyphenyl)-2-(5-methyl-3-(2-methyl-1-oxo-1-(pyrrolidin-1-yl)propan-2-yl)-2,4-dioxo-6-(1H-pyrazol-1-yl)-3,4-dihydrothieno[2,3-d]pyrimidin-1(2H)-yl)ethoxy)propanenitrile]	10 to 40 nM	> 4.1 µg/mL	> 4.1 µg/mL	> 4.1 µg/mL	0.6 to 3 nM	–	–	–
